Measured values published in US10464926B2, “Heterobicyclic compounds and their use for the treatment of tuberculosis” (OTSUKA PHARMACEUTICAL CO., LTD., priority 2014, dated 2019).

What was measured:
[1] = tested on: Mycobacterium tuberculosis (M. tuberculosis Kurono); assay: Antibacterial test (agar dilution method), M. tuberculosis Kurono; format: cell-based; conditions: 7H11 agar medium, about 10^6 CFU/mL, 37° C. for 14 days; for MIC: Mycobacterium tuberculosis, 336 h, read-out: Minimum inhibitory concentration (MIC) kurono

Structure (SMILES) | MIC [1] | melting point | Minimum inhibitory concentration (MIC) kurono [1]
O=C1CCc2c(OC[C@]3(O)CC[C@@](O)(c4ccc(Cl)cc4F)C[C@H]3O)ccc(F)c2N1 (relative stereo) [Example 473, 5-{[(1R*,2R*,4S*)-4-(4-Chloro-2-fluorophenyl)-1,2,4-trihydroxycyclohexyl]methoxy}-8-fluoro-3,4-dihydroquinolin-2(1H)-one] | < 0.39 µg/mL | – | –
NC1(COc2ccc(F)c3c2CCC(=O)N3)CCN(c2ncc(Cl)cc2Cl)CC1 [Example 1, 5-{[4-Amino-1-(3,5-dichloropyridin-2-yl)piperidin-4-yl]methoxy}-8-fluoro-3,4-dihydroquinolin-2(1H)-one] | < 0.39 µg/mL | – | –
NC1(COc2ccc(Cl)c3c2CCC(=O)N3)CCN(c2ccc(Cl)cc2F)CC1 [Example 14, 5-{[4-Amino-1-(4-chloro-2-fluorophenyl)piperidin-4-yl]methoxy}-8-chloro-3,4-dihydroquinolin-2(1H)-one] | < 0.39 µg/mL | – | –
NC1(COc2ccc(Cl)c3[nH]c(=O)ccc23)CCN(c2ccc(Cl)cc2F)CC1 [Example 17, 5-{[4-Amino-1-(4-chloro-2-fluorophenyl)piperidin-4-yl]methoxy}-8-chloroquinolin-2(1H)-one] | < 0.39 µg/mL | – | –
O=C1CCc2c(OCC3(O)CCN(c4ccc(Cl)cc4)CC3)ccc(F)c2N1 [Example 49, 5-{[1-(4-Chlorophenyl)-4-hydroxypiperidin-4-yl]methoxy}-8-fluoro-3,4-dihydroquinolin-2(1H)-one] | < 0.39 µg/mL | – | –
O=C1CCc2c(OCC3(O)CCN(c4ccc(Cl)cc4F)CC3)ccc(F)c2N1 [Example 52, 5-{[1-(4-Chloro-2-fluorophenyl)-4-hydroxypiperidin-4-yl]methoxy}-8-fluoro-3,4-dihydroquinolin-2(1H)-one] | < 0.39 µg/mL | 190.6 to 190.7 °C | –
CCOc1ccc(N2CCC(O)(COc3ccc(F)c4c3CCC(=O)N4)CC2)c(F)c1 [Example 85, 5-{[1-(4-Ethoxy-2-fluorophenyl)-4-hydroxypiperidin-4-yl]methoxy}-8-fluoro-3,4-dihydroquinolin-2(1H)-one] | < 0.39 µg/mL | 196 to 196.1 °C | –
O=C1CCc2c(OCC3(O)CCN(c4c(F)cc(Cl)cc4F)CC3)ccc(Cl)c2N1 [Example 102, 8-Chloro-5-{[1-(4-chloro-2,6-difluorophenyl)-4-hydroxypiperidin-4-yl]methoxy}-3,4-dihydroquinolin-2(1H)-one] | < 0.39 µg/mL | 181 to 181.2 °C | –
O=C1CCc2c(OCC3(O)CCN(c4ccc(Br)cc4F)CC3)cc(F)c(F)c2N1 [Example 130, 5-{[1-(4-Bromo-2-fluorophenyl)-4-hydroxypiperidin-4-yl]methoxy}-7,8-difluoro-3,4-dihydroquinolin-2(1H)-one] | < 0.39 µg/mL | – | –
O=c1ccc2c(OCC3(O)CCN(c4ccc(Cl)cc4F)CC3)cccc2[nH]1 [Example 138, 5-{[1-(4-Chloro-2-fluorophenyl)-4-hydroxypiperidin-4-yl]methoxy}quinolin-2(1H)-one] | < 0.39 µg/mL | 275.7 to 277 °C | –
O=C1CCc2c(OCC3(O)CCN(c4ncc(Cl)cc4Cl)CC3)ccc(Cl)c2N1 [Example 139, 8-Chloro-5-{[1-(3,5-dichloropyridin-2-yl)-4-hydroxypiperidin-4-yl]methoxy}-3,4-dihydroquinolin-2(1H)-one] | < 0.39 µg/mL | 218 °C | –
O=C1CCc2c(OCC3(O)CCN(c4ccc(OCc5ccc(OC(F)(F)F)cc5)cc4F)CC3)ccc(F)c2N1 [Example 152, 8-Fluoro-5-{[1-(2-fluoro-4-{[4-(trifluoromethoxy)benzyl]oxy}phenyl)-4-hydroxypiperidin-4-yl]methoxy}-3,4-dihydroquinolin-2(1H)-one] | < 0.39 µg/mL | 199.9 to 200.5 °C | –
COCCOc1cc(N2CCC(O)(COc3ccc(Cl)c4c3CCC(=O)N4)CC2)c(F)cc1Cl [Example 175, 8-Chloro-5-({1-[4-chloro-2-fluoro-5-(2-methoxyethoxy)phenyl]-4-hydroxypiperidin-4-yl}methoxy)-3,4-dihydroquinolin-2(1H)-one] | < 0.39 µg/mL | 143.5 to 145.1 °C | –
O=C1CCc2c(cc(F)cc2OCC2(O)CCN(c3ccc(Cl)cc3F)CC2)N1 [Example 194, 5-{[1-(4-Chloro-2-fluorophenyl)-4-hydroxypiperidin-4-yl]methoxy}-7-fluoro-3,4-dihydroquinolin-2(1H)-one] | < 0.39 µg/mL | – | –
Cc1c(F)cc(OCC2(O)CCN(c3cc(F)c(Cl)cc3Cl)CC2)c2c1NC(=O)CC2 [Example 206, 5-{[1-(2,4-Dichloro-5-fluorophenyl)-4-hydroxypiperidin-4-yl]methoxy}-7-fluoro-8-methyl-3,4-dihydroquinolin-2(1H)-one] | < 0.39 µg/mL | – | –
O=C1CCc2c(OCC3(O)CCN(c4c(F)cc(F)cc4F)CC3)cc(F)c(Cl)c2N1 [Example 214, 8-Chloro-7-fluoro-5-{[4-hydroxy-1-(2,4,6-trifluorophenyl)piperidin-4-yl]methoxy}-3,4-dihydroquinolin-2(1H)-one] | < 0.39 µg/mL | – | –

Structure (SMILES) | MIC [1] | melting point | Minimum inhibitory concentration (MIC) kurono [1]
O=C1CCc2c(OC[C@]3(O)CCN(c4ncc(Cl)cc4Cl)C[C@H]3O)ccc(F)c2N1 [Example 251, 5-{[(3R,4R)-1-(3,5-Dichloropyridin-2-yl)-3,4-dihydroxypiperidin-4-yl]methoxy}-8-fluoro-3,4-dihydroquinolin-2(1H)-one] | < 0.39 µg/mL | – | –
O=C1CCc2c(OC[C@@]3(O)CCN(c4ncc(Cl)cc4Cl)C[C@@H]3O)ccc(F)c2N1 [Example 252, 5-{[(3S,4S)-1-(3,5-Dichloropyridin-2-yl)-3,4-dihydroxypiperidin-4-yl]methoxy}-8-fluoro-3,4-dihydroquinolin-2(1H)-one] | < 0.39 µg/mL | – | –
O=C1CCc2c(OC[C@]3(O)CCN(c4c(F)cc(Cl)cc4F)C[C@H]3O)ccc(F)c2N1 [Example 260, 5-{[(3R,4R)-1-(4-Chloro-2,6-difluorophenyl)-3,4-dihydroxypiperidin-4-yl]methoxy}-8-fluoro-3,4-dihydroquinolin-2(1H)-one] | < 0.39 µg/mL | – | –
O=C1CCc2c(OC[C@@]3(O)CCN(c4ccc(Cl)cc4F)C[C@@H]3O)ccc(F)c2N1 [Example 265, 5-{[(3S,4S)-1-(4-Chloro-2-fluorophenyl)-3,4-dihydroxypiperidin-4-yl]methoxy}-8-fluoro-3,4-dihydroquinolin-2(1H)-one] | < 0.39 µg/mL | – | –
O=C1CCc2c(OC[C@]3(O)CCN(c4nc5ccc(Cl)cc5cc4Br)C[C@H]3O)ccc(F)c2N1 [Example 288, 5-{[(3R,4R)-1-(3-Bromo-6-chloroquinolin-2-yl)-3,4-dihydroxypiperidin-4-yl]methoxy}-8-fluoro-3,4-dihydroquinolin-2(1H)-one] | < 0.39 µg/mL | – | –
O=C1CCc2c(cccc2OC[C@]2(O)CCN(c3ccc(Br)cc3F)C[C@H]2O)N1 [Example 347, 5-{[(3R,4R)-1-(4-Bromo-2-fluorophenyl)-3,4-dihydroxypiperidin-4-yl]methoxy}-3,4-dihydroquinolin-2(1H)-one] | < 0.39 µg/mL | 226 to 227 °C | –
O=C1CCc2c(OC[C@]3(O)CCN(c4c(F)cc(Cl)cc4F)C[C@@H]3O)ccc(F)c2N1 [Example 361, 5-{[(3S,4R)-1-(4-Chloro-2,6-difluorophenyl)-3,4-dihydroxypiperidin-4-yl]methoxy}-8-fluoro-3,4-dihydroquinolin-2(1H)-one] | < 0.39 µg/mL | – | –
O=C1CCc2c(NCC3(O)CCN(c4ncc(Cl)cc4Cl)CC3)ccc(F)c2N1 [Example 372, 5-({[1-(3,5-Dichloropyridin-2-yl)-4-hydroxypiperidin-4-yl]methyl}amino)-8-fluoro-3,4-dihydroquinolin-2(1H)-one] | < 0.39 µg/mL | – | –
O=C1CCc2c(OCC3(F)CCN(c4ncc(Cl)cc4Cl)CC3)ccc(F)c2N1 [Example 404, 5-{[1-(3,5-Dichloropyridin-2-yl)-4-fluoropiperidin-4-yl]methoxy}-8-fluoro-3,4-dihydroquinolin-2(1H)-one] | < 0.39 µg/mL | – | –
CCOC(=O)O[C@@H]1CN(c2c(F)cc(Cl)cc2F)CC[C@@]1(O)COc1ccc(F)c2c1CCC(=O)N2 [Example 450, (3R,4R)-1-(4-chloro-2,6-difluorophenyl)-4-{[(8-fluoro-2-oxo-1,2,3,4-tetrahydroquinolin-5-yl)oxy]methyl}-4-hydroxypiperidin-3-yl ethyl carbonate] | < 0.39 µg/mL | – | –
CC(=O)O[C@@H]1CN(c2ccc(Cl)cc2F)CC[C@@]1(O)COc1ccc(F)c2c1CCC(=O)N2 [Example 454, (3R,4R)-1-(4-Chloro-2-fluorophenyl)-4-{[(8-fluoro-2-oxo-1,2,3,4-tetrahydroquinolin-5-yl)oxy]methyl}-4-hydroxypiperidin-3-yl acetate] | < 0.39 µg/mL | – | –
O=C1CCc2c(CCC3(O)CCN(c4c(F)cc(Cl)cc4F)CC3)ccc(F)c2N1 [Example 463, 5-{2-[1-(4-Chloro-2,6-difluorophenyl)-4-hydroxypiperidin-4-yl]ethyl}-8-fluoro-3,4-dihydroquinolin-2(1H)-one] | < 0.39 µg/mL | – | –
O=C1CCc2c(OCC3(O)CCC(O)(c4ccc(Cl)cc4F)CC3)ccc(F)c2N1 (stereo not drawn) [Example 465, 5-{[trans-4-(4-Chloro-2-fluorophenyl)-1,4-dihydroxycyclohexyl]methoxy}-8-fluoro-3,4-dihydroquinolin-2(1H)-one] | – | – | <0.39 µg/mL
O=C1CCc2c(OCC3(O)CCC(c4ccc(Cl)cc4F)CC3)ccc(F)c2N1 (stereo not drawn) [Example 469, 5-{[cis-4-(4-Chloro-2-fluorophenyl)-1-hydroxycyclohexyl]methoxy}-8-fluoro-3,4-dihydroquinolin-2(1H)-one] | – | – | <0.39 µg/mL
N#CC1(c2ccc(Cl)cc2F)CCC(O)(COc2ccc(F)c3c2CCC(=O)N3)CC1 (stereo not drawn) [Example 476, trans-1-(4-Chloro-2-fluorophenyl)-4-{[(8-fluoro-2-oxo-1,2,3,4-tetrahydroquinolin-5-yl)oxy]methyl}-4-hydroxycyclohexanecarbonitrile] | – | – | <0.39 µg/mL
COC1(c2ccc(Cl)cc2F)CCC(O)(COc2ccc(F)c3c2CCC(=O)N3)CC1 (stereo not drawn) [Example 477, 5-{[trans-4-(4-Chloro-2-fluorophenyl)-1-hydroxy-4-methoxycyclohexyl]methoxy}-8-fluoro-3,4-dihydroquinolin-2(1H)-one] | – | – | <0.39 µg/mL
